The text below walks through data of patent publication US20060223846A1, “Aza-bridged-bicyclic amino acid derivatives as alpha4 integrin antagonists” (priority 2005, published 2006).

The term IC50 denotes the point on the concentration scale where inhibition reaches its midpoint.

The target in assay [1] is α4β1 (Homo sapiens, UniProt P05556+P13612). The assay is described as follows: Ramos Cell Adhesion Assay (α4β1 Mediated Adhesion/VCAM-1). Also noted: Ramos cells, (50 μL at 2×10^6/mL) labeled with 5 μM Calcein AM; endogenous in cells; host or cells: Ramos cells. The note with it: Ramos cells on recombinant hVCAM-1; read-out: α4β1 IC50. The format is cell-based. The essentials:
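Ramos cells labeled with 5 μM Calcein AM adhered for 1 h at room temperature to wells coated with recombinant human VCAM-1 (4.0 μg/mL, pH 9.0) in presence of compounds. After washing, cells lysed in SDS buffer; fluorescence read at 485/530 nm.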

In assay [2] the target is T1, human α4β7 (Homo sapiens, UniProt P13612+P26010).
T1 construct: expressed in transfected cells
T1 sequence (P13612 34-1032): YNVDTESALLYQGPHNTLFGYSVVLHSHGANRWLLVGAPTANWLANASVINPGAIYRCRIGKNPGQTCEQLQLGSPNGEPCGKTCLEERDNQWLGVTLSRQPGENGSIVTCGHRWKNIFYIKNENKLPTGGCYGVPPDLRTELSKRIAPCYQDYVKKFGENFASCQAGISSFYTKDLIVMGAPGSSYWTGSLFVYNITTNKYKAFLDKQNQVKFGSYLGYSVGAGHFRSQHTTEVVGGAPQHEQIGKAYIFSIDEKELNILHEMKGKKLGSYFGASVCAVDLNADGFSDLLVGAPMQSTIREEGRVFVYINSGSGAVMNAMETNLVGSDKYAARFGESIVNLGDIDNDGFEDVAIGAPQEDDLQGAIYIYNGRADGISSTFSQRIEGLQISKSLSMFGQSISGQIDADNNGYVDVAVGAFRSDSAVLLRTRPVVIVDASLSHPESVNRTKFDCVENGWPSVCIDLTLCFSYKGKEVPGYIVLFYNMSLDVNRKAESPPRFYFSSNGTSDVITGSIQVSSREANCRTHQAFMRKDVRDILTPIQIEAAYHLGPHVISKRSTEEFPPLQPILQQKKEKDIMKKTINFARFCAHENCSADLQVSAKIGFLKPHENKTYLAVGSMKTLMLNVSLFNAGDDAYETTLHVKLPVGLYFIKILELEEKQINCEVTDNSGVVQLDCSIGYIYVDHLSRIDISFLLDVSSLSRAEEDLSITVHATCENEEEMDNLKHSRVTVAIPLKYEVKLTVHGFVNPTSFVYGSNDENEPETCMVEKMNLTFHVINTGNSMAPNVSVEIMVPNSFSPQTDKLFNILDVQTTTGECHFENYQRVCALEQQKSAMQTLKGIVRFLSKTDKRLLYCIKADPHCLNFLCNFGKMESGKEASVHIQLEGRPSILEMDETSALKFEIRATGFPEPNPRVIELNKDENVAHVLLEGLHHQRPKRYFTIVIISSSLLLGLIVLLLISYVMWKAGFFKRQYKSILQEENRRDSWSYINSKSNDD
T1 sequence (P26010 20-798): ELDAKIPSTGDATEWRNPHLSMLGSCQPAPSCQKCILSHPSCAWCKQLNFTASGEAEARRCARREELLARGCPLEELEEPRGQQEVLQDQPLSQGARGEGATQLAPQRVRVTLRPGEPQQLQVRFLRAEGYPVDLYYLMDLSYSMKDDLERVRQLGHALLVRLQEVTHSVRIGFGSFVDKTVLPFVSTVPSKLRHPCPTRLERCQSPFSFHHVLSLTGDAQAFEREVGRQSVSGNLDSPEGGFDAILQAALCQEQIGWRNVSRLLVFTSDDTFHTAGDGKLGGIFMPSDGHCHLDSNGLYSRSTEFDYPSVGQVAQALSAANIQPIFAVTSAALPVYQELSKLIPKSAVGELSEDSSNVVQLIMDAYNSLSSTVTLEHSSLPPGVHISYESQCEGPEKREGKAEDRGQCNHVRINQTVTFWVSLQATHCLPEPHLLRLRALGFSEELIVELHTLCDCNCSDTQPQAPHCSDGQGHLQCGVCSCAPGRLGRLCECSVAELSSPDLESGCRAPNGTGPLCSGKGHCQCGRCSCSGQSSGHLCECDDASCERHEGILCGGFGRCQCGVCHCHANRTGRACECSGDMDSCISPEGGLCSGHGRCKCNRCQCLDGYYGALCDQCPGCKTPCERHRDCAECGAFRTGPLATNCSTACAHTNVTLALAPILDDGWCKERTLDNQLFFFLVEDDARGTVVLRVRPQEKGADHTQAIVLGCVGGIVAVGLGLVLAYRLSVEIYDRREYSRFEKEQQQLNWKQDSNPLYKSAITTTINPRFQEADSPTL
Put plainly: α4β7-K562 Cell Adhesion Assay (α4β7 Mediated Adhesion/VCAM-1). As to conditions: K562 cells expressing human α4β7 on recombinant hVCAM-1; read-out: α4β7 IC50. The format is cell-based. The essentials:
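Calcein AM-labelled K562 cells stably expressing human α4β7 adhered for 1 h at room temperature, with compound, to wells coated with recombinant hVCAM-1 (4.0 μg/mL, pH 9.0) and blocked with PBS/1% BSA. After washing, cells were lysed in 1% SDS/Tris pH 8.0 and fluorescence read at 485/530 nm.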

Chain of α4β1 (P05556 21-798, one chain of several): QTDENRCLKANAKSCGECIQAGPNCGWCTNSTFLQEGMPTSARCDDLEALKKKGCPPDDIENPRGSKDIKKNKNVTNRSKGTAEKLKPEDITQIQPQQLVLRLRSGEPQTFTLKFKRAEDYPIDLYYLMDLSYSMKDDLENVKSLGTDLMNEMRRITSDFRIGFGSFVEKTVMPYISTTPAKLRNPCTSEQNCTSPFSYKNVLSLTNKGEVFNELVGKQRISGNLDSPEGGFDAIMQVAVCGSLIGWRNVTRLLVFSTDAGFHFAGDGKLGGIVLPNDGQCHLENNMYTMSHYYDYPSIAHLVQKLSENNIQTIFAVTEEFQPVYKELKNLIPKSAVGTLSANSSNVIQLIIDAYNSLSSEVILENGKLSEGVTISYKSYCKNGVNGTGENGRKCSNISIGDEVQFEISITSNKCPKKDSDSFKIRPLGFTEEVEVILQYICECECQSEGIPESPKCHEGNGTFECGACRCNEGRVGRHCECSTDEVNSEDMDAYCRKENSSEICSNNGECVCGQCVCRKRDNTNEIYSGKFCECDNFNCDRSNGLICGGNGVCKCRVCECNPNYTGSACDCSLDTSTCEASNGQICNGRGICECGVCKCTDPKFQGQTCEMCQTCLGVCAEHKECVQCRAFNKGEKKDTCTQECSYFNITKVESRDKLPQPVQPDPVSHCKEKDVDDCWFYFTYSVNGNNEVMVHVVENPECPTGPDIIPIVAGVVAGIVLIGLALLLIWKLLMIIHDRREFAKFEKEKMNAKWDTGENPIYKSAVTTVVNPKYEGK

For `CC(C)(C)CCN1C2CCC(CC2)[C@H]1C(=O)N[C@@H](Cc1ccc(NC(=O)c2c(Cl)cncc2Cl)cc1)C(=O)O` [Cpd 16, 3-{4-[(3,5-dichloro-pyridine-4-carbonyl)-amino]-phenyl}-2-{[2-(3,3-dimethyl-butyl)-2-aza-bicyclo[2.2.2]octane-3-carbonyl]-amino}-propionic acid], the IC50 in assay [1] was 47 nM; in assay [2], 94 nM.

With `O=C(Nc1ccc(CC(NC(=O)C2C3CCC(CC3)N2C(=O)Cc2ccsc2)C(=O)O)cc1)c1c(Cl)cncc1Cl` (stereo not shown) [Cpd 3], the figures for the 50% inhibitory concentration (IC50) in assay [1] and in assay [2] were 43 nM and 41 nM, respectively.
